According to paper PMC6379637, “Consecutive influenza surveillance of neuraminidase mutations and neuraminidase inhibitor resistance in Japan” (Influenza and Other Respiratory Viruses, 2019):
“And” between values parts separate entries of the source, which are not always exact repeats. Identical values can stand only once.

Legend:
[1] = target: A/H1N1pdm09 neuraminidase; assay type: biochemical, influenza A/H1N1pdm09 virus; conditions: read-out: IC50
[2] = target: influenza B neuraminidase; assay type: biochemical, influenza B virus; conditions: read-out: IC50

Compound: CCC(CC)[C@H](NC(C)=O)[C@@H]1[C@H](O)[C@@H](C(=O)O)C[C@H]1N=C(N)N [Peramivir, peramivir hydrate]
- IC50 [1]: 0.45 nM and 0.65 nM and 0.26 nM

Compound: CCOC(=O)C1=C[C@@H](OC(CC)CC)[C@H](NC(C)=O)[C@@H](N)C1 [Oseltamivir, oseltamivir phosphate]
- IC50 [2]: 14 nM
